Results taken from patent US8530468B2 (Cancer Research Technology Limited, priority 2008, dated 2013).

Experiments:
CHK1 = target: T1, CHK1 (Homo sapiens, UniProt O14757); assay: CHK1 kinase function inhibition (DELFIA assay, phosphorylation of CDC25C peptide); assay type: biochemical; conditions: CHK1 1 nM, ATP 30 μM, 30 minutes at room temperature
T1 sequence (O14757 1-476): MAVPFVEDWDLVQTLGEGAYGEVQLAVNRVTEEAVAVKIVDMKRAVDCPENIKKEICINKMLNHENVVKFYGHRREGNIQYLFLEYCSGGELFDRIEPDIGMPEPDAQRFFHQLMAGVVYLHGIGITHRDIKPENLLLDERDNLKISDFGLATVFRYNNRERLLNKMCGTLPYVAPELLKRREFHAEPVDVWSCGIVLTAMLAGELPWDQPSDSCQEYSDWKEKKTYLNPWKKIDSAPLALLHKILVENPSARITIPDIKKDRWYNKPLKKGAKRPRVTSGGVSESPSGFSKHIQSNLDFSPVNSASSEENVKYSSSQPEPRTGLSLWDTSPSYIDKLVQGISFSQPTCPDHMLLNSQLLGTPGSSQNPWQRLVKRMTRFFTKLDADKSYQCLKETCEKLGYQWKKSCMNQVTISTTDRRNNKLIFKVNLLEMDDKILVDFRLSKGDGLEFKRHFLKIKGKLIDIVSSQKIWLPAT

HT29 cells = assay: Mitosis inhibition assay (MIA), checkpoint abrogation after etoposide; assay type: cell-based; conditions: Homo sapiens, HT-29, etoposide 50 μM 1 hour, then compound with nocodazole 100 ng/mL, 21 hours, read-out: MIA IC50 (concentration required to allow 50% of cells to enter mitosis)
[1] = test system: HT29 colon carcinoma cells; assay: Cytotoxicity assay (SRB); assay type: cell-based; conditions: Homo sapiens, HT-29, 96 hours, read-out: SRB IC50 (concentration required to inhibit growth by 50%)

CC(CN(C)C)Oc1nc(Nc2cc3cccc(NCCCO)c3cn2)cnc1C#N (stereo not drawn) [AA-034]
IC50 (CHK1): ≤ 1 µM | IC50 (HT29 cells): ≤ 10 µM | IC50 [1]: ≤ 10 µM

COCCNc1cccc2cc(Nc3cnc(C#N)c(O[C@@H]4CCNC4)n3)ncc12 [AA-037]
IC50 (CHK1): ≤ 1 µM | IC50 (HT29 cells): ≤ 10 µM | IC50 [1]: ≤ 10 µM

COCCCNc1cccc2cc(Nc3cnc(C#N)c(O[C@H](C)CN(C)C)n3)ncc12 [AA-038]
IC50 (CHK1): ≤ 1 µM | IC50 (HT29 cells): ≤ 10 µM | IC50 [1]: ≤ 10 µM

N#Cc1ncc(Nc2cc3cccc(NCCCO)c3cn2)nc1O[C@@H]1CCNC1 [AA-040]
IC50 (CHK1): ≤ 1 µM | IC50 (HT29 cells): ≤ 10 µM | IC50 [1]: ≤ 10 µM

C[C@H](CN(C)C)Oc1nc(Nc2cc3cccc(NCCCO)c3cn2)cnc1C#N [AA-041]
IC50 (CHK1): ≤ 1 µM | IC50 (HT29 cells): ≤ 10 µM | IC50 [1]: ≤ 10 µM

N#Cc1ncc(Nc2cc3cccc(NCCO)c3cn2)nc1OC[C@H]1CNCCO1 [AA-043]
IC50 (CHK1): ≤ 1 µM | IC50 (HT29 cells): ≤ 10 µM | IC50 [1]: ≤ 10 µM

N#Cc1ncc(Nc2cc3cccc(NCCO)c3cn2)nc1O[C@@H]1CCNC1 [AA-044]
IC50 (CHK1): ≤ 1 µM | IC50 (HT29 cells): ≤ 10 µM | IC50 [1]: ≤ 10 µM

N#Cc1ncc(Nc2cc3ccccc3cn2)nc1OC[C@H]1CNCCO1 [AA-049]
IC50 (CHK1): ≤ 1 µM | IC50 (HT29 cells): ≤ 10 µM | IC50 [1]: ≤ 10 µM

N#Cc1ncc(Nc2cc3ccccc3cn2)nc1O[C@@H]1CCNC1 [AA-050]
IC50 (CHK1): ≤ 1 µM | IC50 (HT29 cells): ≤ 10 µM | IC50 [1]: ≤ 10 µM

N#Cc1ncc(Nc2cc3cccc(Br)c3cn2)nc1OC[C@H]1CNCCO1 [AA-051]
IC50 (CHK1): ≤ 1 µM | IC50 (HT29 cells): ≤ 10 µM | IC50 [1]: ≤ 10 µM

N#Cc1ncc(Nc2cc3cccc(Br)c3cn2)nc1O[C@@H]1CCNC1 [AA-052]
IC50 (CHK1): ≤ 1 µM | IC50 (HT29 cells): ≤ 10 µM | IC50 [1]: ≤ 10 µM

C[C@H](CN(C)C)Oc1nc(Nc2cc3cccc(F)c3cn2)cnc1C#N [AA-054]
IC50 (CHK1): ≤ 1 µM | IC50 (HT29 cells): ≤ 10 µM | IC50 [1]: ≤ 10 µM

N#Cc1ncc(Nc2cc3cccc(C(F)(F)F)c3cn2)nc1O[C@@H]1CCNC1 [AA-055]
IC50 (CHK1): ≤ 1 µM | IC50 (HT29 cells): ≤ 10 µM | IC50 [1]: ≤ 10 µM

Cc1cccc2cc(Nc3cnc(C#N)c(O[C@H](C)CN(C)C)n3)ncc12 [AA-057]
IC50 (CHK1): ≤ 1 µM | IC50 (HT29 cells): ≤ 10 µM | IC50 [1]: ≤ 10 µM

Cc1cccc2cc(Nc3cnc(C#N)c(O[C@@H]4CCNC4)n3)ncc12 [AA-058]
IC50 (CHK1): ≤ 1 µM | IC50 (HT29 cells): ≤ 10 µM | IC50 [1]: ≤ 10 µM

CNc1cccc2cc(Nc3cnc(C#N)cn3)ncc12 [AA-059]
IC50 (CHK1): ≤ 1 µM | IC50 (HT29 cells): ≤ 10 µM | IC50 [1]: ≤ 10 µM

CNc1cccc2cc(Nc3cnc(C#N)c(OC(C)CN(C)C)n3)ncc12 (stereo not drawn) [AA-060]
IC50 (CHK1): ≤ 1 µM | IC50 (HT29 cells): ≤ 10 µM | IC50 [1]: ≤ 10 µM

N#Cc1cnc(Nc2cc3cccc(N)c3cn2)cn1 [AA-061, 5-(8-Aminoisoquinolin-3-ylamino)pyrazine-2-carbonitrile]
IC50 (CHK1): ≤ 1 µM | IC50 (HT29 cells): ≤ 10 µM | IC50 [1]: ≤ 10 µM

COc1cccc2cc(Nc3cnc(C#N)c(O[C@H](C)CN(C)C)n3)ncc12 [AA-067, (R)-3-(1-(Dimethylamino)propan-2-yloxy)-5-(8-methoxyisoquinolin-3-ylamino)pyrazine-2-carbonitrile]
IC50 (CHK1): ≤ 1 µM | IC50 (HT29 cells): ≤ 10 µM | IC50 [1]: ≤ 10 µM
